Experimental data published in patent US12174174B2, “Composition comprising material for regulating OCT4 modification to repress stemness” (NATIONAL CANCER CENTER, priority 2018, dated 2024).

System: CSNK2A1
Assay: Doxycycline-dependent shRNA inhibition of CSNK2A1 expression in embryonic stem cell line E14, western blotting
Format: cell-based, mouse
Conditions: E14 cells, lentivirus, FIG. 24
Excerpt: To confirm the relationship between CSNK2A1 and OCT4 phosphorylation using a kinase inducing the phosphorylation of serine 351 of OCT4, a cell line for regulating the inhibition of CSNK2A1 expression was produced. To this end, a lentivirus doxycycline-dependently expressing shRNA of SEQ ID NO: 5 or 6 was produced and transfected into an embryonic stem cell line E14, thereby producing a cell line capable of regulating CSNK2A1 expression using doxycycline.

| Substance | OCT4 phosphorylation after inhibition of CSNK2A1 expression |
| --- | --- |
| shRNA of SEQ ID NO: 6: short hairpin RNA inhibiting CSNK2A1 expression, base sequence of SEQ ID NO: 6 (CCGGACAGACUAUGACAUUCGAUUUCUCGAGAAAUCGAAUGUCAUAGUCUGUUUUUUG) | a kinase inducing OCT4 phosphorylation is CSNK2A1 |
| shRNA of SEQ ID NO: 5: short hairpin RNA inhibiting CSNK2A1 expression, base sequence of SEQ ID NO: 5 (CCGGCCGAGUUGCUUCUCGAUAUUUCUCGAGAAAUAUCGAGAAGCAACUCGGUUUUG) | a kinase inducing OCT4 phosphorylation is CSNK2A1 |
